Assay results taken from US6166035A, “1,4-dihydropyridine derivatives and their use in therapy” (Laboratoire L. Lafon, priority 1997, dated 2000).

How the values were obtained:
[1] = system: conscious, spontaneously hypertensive rats; experiment: Hypotensive effect in conscious, spontaneously hypertensive rats; format: in vivo, rat; settings: gastric route
Protocol: 3) Hypotensive effect in conscious, spontaneously hypertensive rats
The animals receive increasing doses of compound every 90 minutes via the gastric route.
The hypotensive effect is evaluated by means of the percentage of maximum reduction of the average arterial pressure after administration of each dose.

[2] = biological target: T1, DHP sites of rat cardiac ventricles (Rattus norvegicus, UniProt P22002); experiment: Anticalcium activity: affinity for the DHP sites of rat cardiac ventricles, displacement of (+)-[3H]-PN 200-110; format: binding; settings: displacement of (+)-[3H]-PN 200-110, rat cardiac ventricle membranes, 30 minutes, 30° C.
T1 construct: membrane preparation of the receptors, this preparation being obtained after dissecting the ventricles; from tissue; host or cells: rat cardiac ventricles (membrane preparation)
T1 sequence (P22002 whole entry, other chains not shown): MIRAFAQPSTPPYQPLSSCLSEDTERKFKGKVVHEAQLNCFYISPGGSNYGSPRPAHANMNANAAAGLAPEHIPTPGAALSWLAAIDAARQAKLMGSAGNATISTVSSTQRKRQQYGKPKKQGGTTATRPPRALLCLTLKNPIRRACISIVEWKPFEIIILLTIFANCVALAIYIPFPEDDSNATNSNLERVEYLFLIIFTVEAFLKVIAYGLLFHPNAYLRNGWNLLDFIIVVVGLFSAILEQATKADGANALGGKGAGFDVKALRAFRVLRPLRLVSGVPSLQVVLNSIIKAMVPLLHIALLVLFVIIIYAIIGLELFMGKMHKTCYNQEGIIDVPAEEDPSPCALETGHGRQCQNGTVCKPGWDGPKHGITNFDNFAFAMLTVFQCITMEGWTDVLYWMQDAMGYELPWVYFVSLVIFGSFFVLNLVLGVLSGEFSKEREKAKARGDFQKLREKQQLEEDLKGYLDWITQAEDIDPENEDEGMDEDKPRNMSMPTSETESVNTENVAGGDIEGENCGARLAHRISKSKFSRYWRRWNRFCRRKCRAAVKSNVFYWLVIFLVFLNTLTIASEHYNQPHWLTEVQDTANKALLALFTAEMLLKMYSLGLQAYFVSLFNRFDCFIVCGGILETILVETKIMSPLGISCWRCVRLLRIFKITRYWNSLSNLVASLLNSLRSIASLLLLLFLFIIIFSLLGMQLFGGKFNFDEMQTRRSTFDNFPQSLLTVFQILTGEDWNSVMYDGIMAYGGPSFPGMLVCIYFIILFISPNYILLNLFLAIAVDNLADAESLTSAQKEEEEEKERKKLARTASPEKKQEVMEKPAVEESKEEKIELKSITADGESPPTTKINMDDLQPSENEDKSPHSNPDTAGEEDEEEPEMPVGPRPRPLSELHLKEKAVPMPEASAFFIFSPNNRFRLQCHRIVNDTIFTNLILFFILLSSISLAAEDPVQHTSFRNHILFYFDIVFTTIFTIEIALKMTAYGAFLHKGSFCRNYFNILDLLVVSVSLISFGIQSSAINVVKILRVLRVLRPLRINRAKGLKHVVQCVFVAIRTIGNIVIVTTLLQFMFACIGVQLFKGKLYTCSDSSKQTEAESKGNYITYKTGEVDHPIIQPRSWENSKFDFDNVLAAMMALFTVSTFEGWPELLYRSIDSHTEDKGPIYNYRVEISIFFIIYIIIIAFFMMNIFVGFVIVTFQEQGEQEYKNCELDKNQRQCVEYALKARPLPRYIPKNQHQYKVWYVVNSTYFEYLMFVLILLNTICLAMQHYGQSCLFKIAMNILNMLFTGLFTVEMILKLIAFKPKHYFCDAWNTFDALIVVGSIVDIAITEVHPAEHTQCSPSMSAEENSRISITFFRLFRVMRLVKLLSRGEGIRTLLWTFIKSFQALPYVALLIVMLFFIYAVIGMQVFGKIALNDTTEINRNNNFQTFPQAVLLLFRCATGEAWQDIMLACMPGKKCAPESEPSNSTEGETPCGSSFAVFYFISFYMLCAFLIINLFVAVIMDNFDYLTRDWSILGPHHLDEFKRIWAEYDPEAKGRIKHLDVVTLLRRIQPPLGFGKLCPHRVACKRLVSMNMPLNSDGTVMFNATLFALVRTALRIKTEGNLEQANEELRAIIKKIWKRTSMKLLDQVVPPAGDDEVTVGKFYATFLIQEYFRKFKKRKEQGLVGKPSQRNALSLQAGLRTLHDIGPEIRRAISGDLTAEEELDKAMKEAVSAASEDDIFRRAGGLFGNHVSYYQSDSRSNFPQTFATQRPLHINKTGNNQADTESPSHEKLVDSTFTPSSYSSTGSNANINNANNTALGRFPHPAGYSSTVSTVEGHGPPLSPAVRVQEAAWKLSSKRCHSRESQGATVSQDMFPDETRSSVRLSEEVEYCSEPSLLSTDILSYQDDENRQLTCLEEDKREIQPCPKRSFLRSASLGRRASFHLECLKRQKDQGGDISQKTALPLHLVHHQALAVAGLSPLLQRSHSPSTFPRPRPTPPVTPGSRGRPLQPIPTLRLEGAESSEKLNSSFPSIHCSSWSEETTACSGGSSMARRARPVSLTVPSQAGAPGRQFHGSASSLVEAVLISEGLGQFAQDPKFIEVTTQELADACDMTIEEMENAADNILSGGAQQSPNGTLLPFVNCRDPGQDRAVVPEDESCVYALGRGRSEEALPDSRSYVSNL
T1 sequence (P54290 25-944 partner limits assumed, other chains not shown): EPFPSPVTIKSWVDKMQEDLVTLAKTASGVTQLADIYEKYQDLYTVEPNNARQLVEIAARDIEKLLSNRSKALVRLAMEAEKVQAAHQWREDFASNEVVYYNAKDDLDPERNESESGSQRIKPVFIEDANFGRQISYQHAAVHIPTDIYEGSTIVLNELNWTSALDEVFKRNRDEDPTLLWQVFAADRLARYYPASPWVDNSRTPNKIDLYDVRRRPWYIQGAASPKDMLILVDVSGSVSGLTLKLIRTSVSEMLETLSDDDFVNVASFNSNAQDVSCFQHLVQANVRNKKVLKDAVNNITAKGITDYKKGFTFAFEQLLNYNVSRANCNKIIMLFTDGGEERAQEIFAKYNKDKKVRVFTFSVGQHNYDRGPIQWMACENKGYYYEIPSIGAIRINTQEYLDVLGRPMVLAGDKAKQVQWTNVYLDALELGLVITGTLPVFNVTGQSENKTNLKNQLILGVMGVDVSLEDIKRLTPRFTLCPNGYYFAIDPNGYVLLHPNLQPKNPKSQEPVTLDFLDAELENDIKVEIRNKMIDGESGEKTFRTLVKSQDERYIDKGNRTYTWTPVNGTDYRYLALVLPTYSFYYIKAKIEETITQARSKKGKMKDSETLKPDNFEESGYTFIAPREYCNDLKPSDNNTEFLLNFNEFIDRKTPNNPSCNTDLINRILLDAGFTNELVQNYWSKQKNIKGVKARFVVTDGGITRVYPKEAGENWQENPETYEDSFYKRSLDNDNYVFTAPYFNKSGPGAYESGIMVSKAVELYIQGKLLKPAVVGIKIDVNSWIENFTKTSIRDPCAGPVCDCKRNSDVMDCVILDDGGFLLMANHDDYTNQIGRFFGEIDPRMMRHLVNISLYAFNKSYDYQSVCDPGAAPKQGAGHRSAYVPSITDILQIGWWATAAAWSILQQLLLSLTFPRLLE
T1 sequence (P54290 945-1091 partner limits assumed, other chains not shown): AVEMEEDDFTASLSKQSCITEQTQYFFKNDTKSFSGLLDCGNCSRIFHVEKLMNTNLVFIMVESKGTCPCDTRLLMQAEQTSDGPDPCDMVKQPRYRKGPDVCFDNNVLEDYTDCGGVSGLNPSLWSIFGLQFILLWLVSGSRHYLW
Protocol: 1) Anticalcium activity by measuring the affinity for the DHP sites of rat cardiac ventricles
These membrane preparations are placed in contact with the specific radioactive ligand (+)-[^3 H]-PN 200-110 and the test compound, at different concentrations. The suspension is stirred for 30 minutes at a temperature of 30° C. The reaction is then stopped by filtration using a Harvester-type system. The filter is introduced into a counting flask containing scintillation liquid. The radioactivity present on each filter is then measured by counting in a β-counter with liquid scintillation.
The intensity of the binding to the membrane receptors is defined by the (molar) concentration of the test compound which is needed to displace 50% of the amount of the specific ligand (+)-[^3 H]-PN 200-110 prebound to the DHP sites. This concentration is the IC50 concentration.

[3] = system: isolated rat aorta; experiment: Anticalcium activity: antagonism of KCl-mediated contraction of isolated rat aorta; settings: KCl 5×10^-2 M.l^-1 contraction, isolated rat thoracic aorta ring
Protocol: 2) Anticalcium activity by measuring the KCl-mediated antagonism of the contraction of isolated rat aorta
The technique employed uses a ring of arterial vascular tissue taken from rat thoracic aorta and then kept alive in aerated bicarbonated Krebs buffer, and subjected to an initial tension of 2 g. The introduction of potassium chloride KCl (in a volume of 300 μl) at a concentration 5×10^-2 M.l^-1 into the Krebs buffer bath generates a sustained contraction whose amplitude (isometric tension) is antagonized by the addition of a solution of the test compound of increasing concentrations, each addition being made every 5 minutes. The molar concentration of the test compound which reduces by 50% the maximum contraction observed in KCl is then calculated. This concentration is the 50% inhibitory concentration (or IC50).

[4] = system: coronary output of anaesthetized dogs; experiment: Effect on the coronary output of anaesthetized dogs; format: in vivo, dog; settings: intravenous
Protocol: 4) Effect on the coronary output of anaesthetized dogs
The animals receive increasing doses of compound every 30 minutes via the intravenous route. The effect on the coronary output is evaluated by means of its percentage of maximum variation after each dose.

[5] = Therapeutic index: minimum arrhythmogenic dose / dose active on the coronary output, anaesthetized dogs; format: in vivo, dog; parameters: minimum arrhythmogenic dose: unit: µg/kg; settings: dog, in vivo; ratio, anaesthetized dogs, intravenous route; read-out: Arrhythmogenic dose/dose which is active on the coronary output (therapeutic index)
Text: (§1) 5) Therapeutic index The therapeutic index is defined as being the ratio between the minimum arrhythmogenic dose and the dose which increases the basal coronary output by 50% (this dose is referred to hereinbelow as the "dose which is active on the coronary output").

[6] = system: anaesthetized dogs; experiment: as above; format: in vivo, dog; parameters: minimum arrhythmogenic dose: unit: µg/kg; settings: for ED (50% increase): Canis lupus familiaris, iv, read-out: dose which is active on the coronary output (increases the basal coronary output by 50%); for minimum arrhythmogenic dose: anaesthetized dogs, intravenous route
Text: as §1

[7] = dose +10 mg/kg, increasing doses every 90 minutes
[8] = dose +30 mg/kg, increasing doses every 90 minutes
[9] = dose +10 μg/kg, increasing doses every 30 minutes
[10] = dose +20 μg/kg, increasing doses every 30 minutes
[11] = dose +40 μg/kg, increasing doses every 30 minutes
[12] = dose +80 μg/kg, increasing doses every 30 minutes
[13] = dose +160 μg/kg, increasing doses every 30 minutes
[14] = dose +320 μg/kg, increasing doses every 30 minutes

| SMILES | percentage of maximum reduction of the average arterial pressure ([1]; dose 3 mg/kg) [%] | percentage of maximum reduction of the average arterial pressure [1, 7] [%] | percentage of maximum reduction of the average arterial pressure [1, 8] [%] | IC50 [2] [nM] | IC50 [3] [nM] | percentage of maximum variation of the coronary output ([4]; dose 5 μg/kg) | percentage of maximum variation of the coronary output [4, 9] | percentage of maximum variation of the coronary output [4, 10] | percentage of maximum variation of the coronary output [4, 11] | percentage of maximum variation of the coronary output [4, 12] | percentage of maximum variation of the coronary output [4, 13] | percentage of maximum variation of the coronary output [4, 14] | selectivity ratio [5] | ED (50% increase) [6] [mg/kg] | minimum arrhythmogenic dose [6] |
| --- | --- | --- | --- | --- | --- | --- | --- | --- | --- | --- | --- | --- | --- | --- | --- |
| COC(=O)C1=C(C)NC(C)=C(C(=O)O[C@@H]2CCCN(CCCCC(=O)c3cccs3)C2)[C@H]1c1cccc([N+](=O)[O-])c1 [Example 1, (4S,3'R)(-)N-[4-(2-thienoyl)-butyl]piperid-3'-yl 2,6-dimethyl-4-(3-nitrophenyl)-5-methoxycarbonyl-1,4-dihydropyridine-3-carboxylate] | 0 | -22 | -45 | 15 | 130 | 12% | +28% | +56% | +72% | +81% | +67% | +64% | 32 | 0.02 | 640 |
| COC(=O)C1=C(C)NC(C)=C(C(=O)O[C@@H]2CCN(CCCCC(=O)c3c(OC)cc(OC)cc3OC)C2)[C@H]1c1cccc([N+](=O)[O-])c1 [Example 2, (4S,3'R)(-)N-[4-(2,4,6-trimethoxybenzoyl)butyl]pyrrolidin-3'-yl 2,6-dimethyl-4-(3-nitrophenyl)-5-methoxycarbonyl-1,4-dihydropyridine-3-carboxylate] |  |  |  | 7.8 |  | +16% | +14% | +34% | +78% | +68% | +59% | +33% | 16 | 0.04 | 640 |
| COC(=O)C1=C(C)NC(C)=C(C(=O)O[C@@H]2CCCN(CCCCC(=O)c3ccc[nH]3)C2)[C@H]1c1cccc([N+](=O)[O-])c1 [Example 3, (4S,3'R)(-)N-[5-(1H-pyrrol-2-yl)-5-oxopentyl]piperid-3'-yl 2,6-dimethyl-4-(3-nitrophenyl)-5-methoxycarbonyl-1,4-dihydropyridine-3-caroxylate] | -12 | -21 | -54 |  | 160 | +7% | +30% | +59% | +76% | +84% | +84% | +59% | 32 | 0.02 | 640 |
| COC(=O)C1=C(C)NC(C)=C(C(=O)O[C@@H]2CCCN(CCCC(=O)c3cccs3)C2)[C@H]1c1cccc([N+](=O)[O-])c1 [Example A, reference compound] |  |  |  |  |  |  |  |  |  |  |  |  | 1 | 0.64 | 640 |
| COC(=O)C1=C(C)NC(C)=C(C(=O)O[C@@H]2CCN(CCCC(=O)c3c(OC)cc(OC)cc3OC)C2)[C@H]1c1cccc([N+](=O)[O-])c1 [Example B, reference compound] |  |  |  |  |  |  |  |  |  |  |  |  | 1 | 0.64 | 640 |
